Measurements: ChEMBL document CHEMBL4350985, “1,3-Dioxane as a scaffold for potent and selective 5-HT1AR agonist with in-vivo anxiolytic, anti-depressant and anti-nociceptive activity” (Eur J Med Chem, 2019)
The source made the active and inactive calls. The calls are words filed in the database; no cut-off is given here.

Tests used:
[1] = target: T1, Alpha-1A adrenergic receptor (Rattus norvegicus) (UniProt P43140); test: Antagonist activity at alpha-1a adrenergic receptor in Wistar rat prostatic vas deferens assessed as inhibition of (-)-noradrenaline-induced contraction
T1 sequence (whole entry): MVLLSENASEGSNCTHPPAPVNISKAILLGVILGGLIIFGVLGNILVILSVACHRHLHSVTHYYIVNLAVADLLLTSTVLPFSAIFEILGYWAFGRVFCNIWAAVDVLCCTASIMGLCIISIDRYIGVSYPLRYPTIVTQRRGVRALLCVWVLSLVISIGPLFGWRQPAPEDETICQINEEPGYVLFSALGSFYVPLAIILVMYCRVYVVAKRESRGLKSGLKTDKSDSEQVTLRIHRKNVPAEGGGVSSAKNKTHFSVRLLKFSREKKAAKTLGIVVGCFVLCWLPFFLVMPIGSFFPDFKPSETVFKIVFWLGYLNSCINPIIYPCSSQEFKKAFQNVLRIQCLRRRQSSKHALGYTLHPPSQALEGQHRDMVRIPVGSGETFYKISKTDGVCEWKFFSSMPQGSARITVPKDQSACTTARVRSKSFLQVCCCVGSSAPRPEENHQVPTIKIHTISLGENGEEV

[2] = target: T2, Alpha-1B adrenergic receptor (Rattus norvegicus) (UniProt P15823); test: Antagonist activity at alpha-1b adrenergic receptor in Wistar rat spleen assessed as inhibition of (-)-phenylephrine-induced contraction; assay type: tissue-based
T2 sequence (whole entry): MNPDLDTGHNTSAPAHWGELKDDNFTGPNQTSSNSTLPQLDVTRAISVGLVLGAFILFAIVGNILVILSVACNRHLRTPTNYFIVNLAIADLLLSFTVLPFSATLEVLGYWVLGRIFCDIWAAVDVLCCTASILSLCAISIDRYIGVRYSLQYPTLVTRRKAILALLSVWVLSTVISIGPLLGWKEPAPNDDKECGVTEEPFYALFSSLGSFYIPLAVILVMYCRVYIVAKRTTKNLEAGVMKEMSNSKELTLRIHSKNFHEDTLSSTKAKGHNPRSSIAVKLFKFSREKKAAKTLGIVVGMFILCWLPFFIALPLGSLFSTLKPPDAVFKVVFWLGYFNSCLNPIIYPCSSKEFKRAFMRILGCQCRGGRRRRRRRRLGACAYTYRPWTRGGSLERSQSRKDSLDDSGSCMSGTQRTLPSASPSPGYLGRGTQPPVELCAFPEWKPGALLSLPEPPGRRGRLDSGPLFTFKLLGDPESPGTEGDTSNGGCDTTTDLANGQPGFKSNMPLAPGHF

[3] = target: T3, Alpha-1D adrenergic receptor (Rattus norvegicus) (UniProt P23944); test: Antagonist activity at alpha-1d adrenergic receptor in Wistar rat thoracic aorta assessed as inhibition of (-)-noradrenaline-induced contractions
T3 sequence (whole entry): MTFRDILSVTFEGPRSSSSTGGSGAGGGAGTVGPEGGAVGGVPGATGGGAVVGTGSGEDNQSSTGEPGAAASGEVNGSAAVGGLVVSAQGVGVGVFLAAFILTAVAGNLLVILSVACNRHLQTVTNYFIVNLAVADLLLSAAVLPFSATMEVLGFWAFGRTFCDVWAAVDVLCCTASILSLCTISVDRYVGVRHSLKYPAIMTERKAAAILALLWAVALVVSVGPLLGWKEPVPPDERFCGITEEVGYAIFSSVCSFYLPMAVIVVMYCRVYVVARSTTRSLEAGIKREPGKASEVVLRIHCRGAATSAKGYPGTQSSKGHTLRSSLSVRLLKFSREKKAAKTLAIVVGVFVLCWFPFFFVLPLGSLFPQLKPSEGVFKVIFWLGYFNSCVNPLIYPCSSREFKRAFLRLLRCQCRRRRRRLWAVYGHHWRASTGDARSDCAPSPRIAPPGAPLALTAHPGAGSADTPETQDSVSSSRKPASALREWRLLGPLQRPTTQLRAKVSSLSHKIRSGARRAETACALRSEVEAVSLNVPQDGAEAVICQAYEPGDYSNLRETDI

[4] = target: T4, Alpha-1B adrenergic receptor (Homo sapiens, UniProt P35368); test: Displacement of [3H] prazosin from human cloned adrenoceptor alpha 1B expressed in CHO cell membrane incubated for 30 mins by liquid scintillation counter
T4 sequence (P35368 whole entry): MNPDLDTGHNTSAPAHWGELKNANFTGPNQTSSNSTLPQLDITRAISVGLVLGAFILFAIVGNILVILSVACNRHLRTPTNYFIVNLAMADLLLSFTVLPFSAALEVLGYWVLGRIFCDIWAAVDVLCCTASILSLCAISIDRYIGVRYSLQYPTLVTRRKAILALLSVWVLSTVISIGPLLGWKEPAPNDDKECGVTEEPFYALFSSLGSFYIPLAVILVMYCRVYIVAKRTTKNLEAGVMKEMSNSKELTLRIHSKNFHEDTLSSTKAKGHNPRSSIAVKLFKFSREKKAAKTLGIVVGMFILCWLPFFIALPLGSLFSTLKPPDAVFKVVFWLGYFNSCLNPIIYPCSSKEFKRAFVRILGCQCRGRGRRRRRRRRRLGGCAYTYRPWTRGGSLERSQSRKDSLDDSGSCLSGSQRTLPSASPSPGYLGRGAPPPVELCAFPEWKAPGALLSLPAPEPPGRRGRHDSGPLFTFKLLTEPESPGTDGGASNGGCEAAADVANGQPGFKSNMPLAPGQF

[5] = target: T5, 5-hydroxytryptamine receptor 1A (Homo sapiens, UniProt P08908); test: Displacement of [3H]8-OH-DPAT from human cloned 5HT-1AR transfected in HeLa cells incubated for 30 mins by liquid scintillation counter; assay type: cell-based
T5 sequence (P08908 whole entry): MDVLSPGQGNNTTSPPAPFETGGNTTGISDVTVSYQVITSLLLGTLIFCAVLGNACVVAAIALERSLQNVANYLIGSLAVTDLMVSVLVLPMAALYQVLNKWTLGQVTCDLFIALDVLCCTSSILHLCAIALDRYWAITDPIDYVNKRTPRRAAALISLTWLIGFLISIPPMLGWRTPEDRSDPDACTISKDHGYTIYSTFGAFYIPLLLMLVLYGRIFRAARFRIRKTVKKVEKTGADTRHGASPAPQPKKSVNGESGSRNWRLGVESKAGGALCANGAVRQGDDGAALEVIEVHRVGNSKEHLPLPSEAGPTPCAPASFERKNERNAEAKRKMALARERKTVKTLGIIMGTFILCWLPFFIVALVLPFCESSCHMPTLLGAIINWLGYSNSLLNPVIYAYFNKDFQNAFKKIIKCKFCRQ

[6] = target: T6, Alpha-1A adrenergic receptor (Homo sapiens, UniProt P35348); test: biochemical
T6 sequence (P35348 whole entry): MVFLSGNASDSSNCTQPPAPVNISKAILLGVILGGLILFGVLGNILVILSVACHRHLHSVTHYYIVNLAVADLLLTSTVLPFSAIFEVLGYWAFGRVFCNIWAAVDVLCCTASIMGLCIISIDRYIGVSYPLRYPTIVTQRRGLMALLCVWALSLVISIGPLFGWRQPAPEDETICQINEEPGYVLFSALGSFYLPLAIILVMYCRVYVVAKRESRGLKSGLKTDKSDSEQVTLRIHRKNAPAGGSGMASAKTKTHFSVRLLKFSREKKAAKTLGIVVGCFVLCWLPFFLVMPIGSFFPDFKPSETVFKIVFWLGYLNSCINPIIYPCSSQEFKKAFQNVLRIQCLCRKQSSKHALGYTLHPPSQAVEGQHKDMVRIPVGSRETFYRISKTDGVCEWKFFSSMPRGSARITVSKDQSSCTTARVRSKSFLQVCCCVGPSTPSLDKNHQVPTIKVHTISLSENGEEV
Description: Displacement of [3H] prazosin from human cloned adrenoceptor alpha 1A expressed in CHO cell membrane incubated for 30 mins by liquid scintillation counting

[7] = target: T7, Alpha-1D adrenergic receptor (Homo sapiens, UniProt P25100); test: biochemical
T7 sequence (P25100 whole entry): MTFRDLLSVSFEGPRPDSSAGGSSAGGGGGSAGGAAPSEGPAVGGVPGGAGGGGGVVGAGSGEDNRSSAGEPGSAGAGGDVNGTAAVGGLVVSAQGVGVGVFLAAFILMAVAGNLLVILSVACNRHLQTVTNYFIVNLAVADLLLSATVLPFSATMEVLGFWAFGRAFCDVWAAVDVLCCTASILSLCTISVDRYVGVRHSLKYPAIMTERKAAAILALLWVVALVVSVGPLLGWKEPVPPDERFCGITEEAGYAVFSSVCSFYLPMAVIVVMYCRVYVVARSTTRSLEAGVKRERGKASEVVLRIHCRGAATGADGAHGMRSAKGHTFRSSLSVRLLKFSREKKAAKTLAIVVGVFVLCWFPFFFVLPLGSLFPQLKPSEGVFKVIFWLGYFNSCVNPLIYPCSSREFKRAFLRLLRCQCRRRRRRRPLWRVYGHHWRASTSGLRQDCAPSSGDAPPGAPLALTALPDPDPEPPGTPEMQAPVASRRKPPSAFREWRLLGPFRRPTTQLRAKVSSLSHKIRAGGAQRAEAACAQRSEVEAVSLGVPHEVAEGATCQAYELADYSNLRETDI
Description: Displacement of [3H] prazosin from human cloned adrenoceptor alpha 1D expressed in CHO cell membrane incubated for 30 mins by liquid scintillation counter

[8] = Half life in Sprague-Dawley rat plasma at 10 mg/kg, po measured upto 480 mins by LC/MS-MS analysis; assay type: ADME, organism-based
Rattus norvegicus [9] = test: Anxiolytic activity at Sprague-Dawley rat assessed as increase in time spent in open arm at 0.5 mg/kg, ip by EPM test relative to control; assay type: functional
Rattus norvegicus [10] = test: Effect on locomotory activity in Sprague-Dawley rat assessed as distance travelled at 0.5 mg/kg, ip by open field test; assay type: functional, organism-based
Rattus norvegicus [11] = test: Anxiolytic activity at Sprague-Dawley rat assessed as number of open arm entries at 0.5 mg/kg, ip by EPM test; assay type: functional, organism-based
Rattus norvegicus [12] = test: Antidepressant activity in Sprague-Dawley rat assessed as decrease in time of immobilization at 0.5 mg/kg, ip by forced swim test; assay type: functional, organism-based
Rattus norvegicus [13] = test: Antidepressant activity in Sprague-Dawley rat assessed as increase in time spent in swimming at 0.5 mg/kg, ip by forced swim test; assay type: functional, organism-based
Rattus norvegicus [14] = test: Antidepressant activity in Sprague-Dawley rat assessed as time spent on climbing at 0.5 mg/kg, ip by forced swim test; assay type: functional, organism-based
Rattus norvegicus [15] = species: Rattus norvegicus; test: Selectivity for antagonist activity at Wistar rat thoracic aorta alpha 1D adrenoceptor over antagonist activity at Wistar rat prostate vas deferens alpha 1A adrenoceptor
Rattus norvegicus [16] = species: Rattus norvegicus; test: Selectivity for antagonist activity at Wistar rat thoracic aorta alpha 1D adrenoceptor over antagonist activity at Wistar rat spleen alpha 1B adrenoceptor
[17] = target: T8, 5-hydroxytryptamine receptor 1A (Homo sapiens) (UniProt P08908); settings: HeLa
T8 sequence (whole entry): T5 sequence (P08908 whole entry)
Description: Agonist activity at human recombinant 5HT1A receptor expressed in human HeLa cells assessed as increase in [35S]GTPgammaS binding incubated for 20 mins by liquid scintillation counter

SMILES | pKb [1] | pKb [2] | pKb [3] | Ki [4] | Ki [5] | Ki [6] | Ki [7] | half-life [8] | Activity (Rattus norvegicus [9]) | Activity (Rattus norvegicus [10]) | Activity (Rattus norvegicus [11]) | inhibition (Rattus norvegicus [12]) | Activity (Rattus norvegicus [13]) | Activity (Rattus norvegicus [14]) | Ratio pKb (Rattus norvegicus [15]) | Ratio pKb (Rattus norvegicus [16]) | pD2 [17]
c1ccc(OCCNCC[C@@H]2CO[C@H](C(c3ccccc3)c3ccccc3)O2)cc1 (relative stereo) | 6.14 | 6.43 | 7.15 | 107 nM | 60.3 nM | 170 nM | 75.9 nM |  |  |  |  |  |  |  |  |  | 
c1ccc(OCCNC[C@@H]2CO[C@H](C(c3ccccc3)c3ccccc3)O2)cc1 (relative stereo) | 6.22 | 6.83 | 6.72 | 102 nM | 11.5 nM | 427 nM | 29.5 nM |  |  |  |  |  |  |  |  |  | 
c1ccc(OCCNC[C@H]2CO[C@H](C(c3ccccc3)c3ccccc3)O2)cc1 (relative stereo) | 6.29 | 6.26 | 6.7 | 102 nM | 5.25 nM | 120 nM | 87.1 nM |  |  |  |  |  |  |  |  |  | 
Br.CCCN(CCC)C1CCc2cccc(O)c2C1 (stereo unspecified) |  |  |  |  |  |  |  | 27 min | 19% | inactive | inactive | Active | Active | inactive |  |  | 
COc1ccccc1OCCNC[C@@H]1CO[C@H](C(c2ccccc2)c2ccccc2)O1 (relative stereo) | 6.16 | 6.75 | 7.52 | 37.2 nM | 3.16 nM | 977 nM | 4.37 nM |  |  |  |  |  |  |  |  |  | 
c1ccc(OCCNCC2COC(c3ccccc3)(c3ccccc3)O2)cc1 (stereo unspecified) | 6.16 | 5.86 | 8.37 |  |  |  |  |  |  |  |  |  |  |  | > 100 | > 100 | 8.8
c1ccc(OCCNCCC2COC(c3ccccc3)(c3ccccc3)O2)cc1 (stereo unspecified) | 6.34 | 6.49 | 7.04 | 95.5 nM | 724 nM | 58.9 nM | 30.2 nM |  |  |  |  |  |  |  |  |  | 
c1ccc(OCCNCC[C@H]2CO[C@H](C(c3ccccc3)c3ccccc3)O2)cc1 (relative stereo) | 5.71 | 6.66 | 7.22 | 166 nM | 57.5 nM | 89.1 nM | 95.5 nM |  |  |  |  |  |  |  |  |  | 
COc1ccccc1OCCNCC1COC(c2ccccc2)(c2ccccc2)O1 (stereo unspecified) | 7.53 | 7.36 | 8.65 |  |  |  |  |  |  |  |  |  |  |  |  |  | 7.36
COc1ccccc1OCCNC[C@H]1CO[C@H](C(c2ccccc2)c2ccccc2)O1 (relative stereo) | 6.78 | 6.82 | 7.64 | 27.5 nM | 2 nM | 30.9 nM | 7.08 nM |  |  |  |  |  |  |  |  |  | 
